Consider 16 compounds from patent US8957064B2, “Fused pyrimidines” (Bayer Intellectual Property GmbH, priority 2009, dated 2015).

Experiment [1] concerns the target His-tagged human recombinant kinase full-length Akt1 (Homo sapiens (Human), UniProt P31749). In words: Akt1 kinase assay (Akt1 TR-FRET assay, Biological Assay 1.0). The format is biochemical. To be noted: 10 μM ATP, 1 μM biotinylated peptide substrate, 60 min at 22° C. The text has this:
Biological Assay 1.0: Akt1 Kinase Assay
Akt1 inhibitory activity of compounds of the present invention may be quantified employing the Akt1 TR-FRET assay as described in the following paragraphs. His-tagged human recombinant kinase full-length Akt1 expressed in insect cells was purchased form Invitrogen (part number PV 3599). As substrate for the kinase reaction the biotinylated peptide biotin-Ahx-KKLNRTLSFAEPG (C-terminus in amide form) was used which can be purchased e.g. from the company Biosynthan GmbH (Berlin-Buch, Germany).
(§1) For the assay 50 nl of a 100 fold concentrated solution of the test compound in DMSO was pipetted into a black low volume 384 well microtiter plate (Greiner Bio-One, Frickenhausen, Germany), 2 μl of a solution of Akt1 in assay buffer [50 mM TRIS/HCl pH 7.5, 5 mM MgCl2, 1 mM dithiothreitol, 0.02% (v/v) Triton X-100 (Sigma)] were added and the mixture was incubated for 15 min at 22° C. to allow prebinding of the test compounds to the enzyme before the start of the kinase reaction. Then the kinase reaction was started by the addition of 3 μl of a solution of adenosine-tri-phosphate (ATP, 16.7 μM=>final conc. in the 5 μl assay volume is 10 μM) and substrate (1.67 μM=>final conc. in the 5 μl assay volume is 1 μM) in assay buffer and the resulting mixture was incubated for a reaction time of 60 min at 22° C. The concentration of Akt1 in the assay was adjusted depending of the activity of the enzyme lot and was chosen appropriate to have the assay in the linear range, typical enzyme concentrations were in the range of about 0.05 ng/μl (final conc. in the 5 μl assay volume).
(§2) The reaction was stopped by the addition of 5 μl of a solution of HTRF detection reagents (200 nM streptavidine-XL665 [Cisbio] and 1.5 nM anti-phosho-Serine antibody [Millipore, cat. #35-001] and 0.75 nM LANCE Eu-W 1024 labeled anti-mouse IgG antibody [Perkin Elmer]) in an aqueous EDTA-solution (100 mM EDTA, 0.1% (w/v) bovine serum albumin in 50 mM HEPES/NaOH pH 7.5).
(§3) The resulting mixture was incubated 1 h at 22° C. to allow the binding of the biotinylated phosphorylated peptide to the streptavidine-XL665 and the antibodies. Subsequently the amount of phosphorylated substrate was evaluated by measurement of the resonance energy transfer from the anti-mouse-IgG-Eu-Chelate to the streptavidine-XL665. Therefore, the fluorescence emissions at 620 nm and 665 nm after excitation at 350 nm was measured in a HTRF reader, e.g. a Rubystar (BMG Labtechnologies, Offenburg, Germany) or a Viewlux (Perkin-Elmer). The ratio of the emissions at 665 nm and at […] was taken as the measure for the amount of phosphorylated substrate. The data were normalised (enzyme reaction without inhibitor=0% inhibition, all other assay components but no enzyme=100% inhibition).
Background: In TR-FRET formats the signal depends on donor and acceptor labels being close together.

For experiment [2], the target named is His-tagged human recombinant kinase full-length Akt2 activated by PDK1 (Homo sapiens (Human), UniProt P31751). In words: Akt2 kinase assay (Akt2 TR-FRET assay, Biological Assay 2.0). The note with it: 10 μM ATP, 1 μM biotinylated peptide substrate, 60 min at 22° C. Format: biochemical.
Sequence of His-tagged human recombinant kinase full-length Akt2 activated by PDK1 (P31751 whole entry): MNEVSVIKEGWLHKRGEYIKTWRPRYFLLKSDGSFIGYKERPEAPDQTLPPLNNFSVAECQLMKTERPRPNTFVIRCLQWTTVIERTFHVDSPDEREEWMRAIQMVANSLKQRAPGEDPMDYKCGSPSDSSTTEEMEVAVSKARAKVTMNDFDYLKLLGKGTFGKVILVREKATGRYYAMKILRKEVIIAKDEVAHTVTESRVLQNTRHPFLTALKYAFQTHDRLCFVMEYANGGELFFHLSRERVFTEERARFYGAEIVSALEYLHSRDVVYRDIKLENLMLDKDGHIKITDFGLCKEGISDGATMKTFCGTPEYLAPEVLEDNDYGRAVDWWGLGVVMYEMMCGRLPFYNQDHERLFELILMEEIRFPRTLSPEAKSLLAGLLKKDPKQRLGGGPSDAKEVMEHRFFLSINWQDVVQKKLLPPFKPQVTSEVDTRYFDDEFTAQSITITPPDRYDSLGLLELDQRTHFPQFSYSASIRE
From the text: Biological Assay 2.0: Akt2 Kinase Assay
Akt2 inhibitory activity of compounds of the present invention was quantified employing the Akt2 TR-FRET assay as described in the following paragraphs.
His-tagged human recombinant kinase full-length Akt2 expressed in insect cells and activated by PDK1 was purchased form Invitrogen (part number PV 3975). As substrate for the kinase reaction the biotinylated peptide biotin-Ahx-KKLNRTLSFAEPG (C-terminus in amide form) was used which can be purchased e.g. from the company Biosynthan GmbH (Berlin-Buch, Germany).
as §1, with “Akt2” for “Akt1”, “0.2” for “0.05”
as §2
as §3, with “TR-FRET” for “HTRF”

The IC50 is the midpoint of a concentration-inhibition curve.

Sequence of His-tagged human recombinant kinase full-length Akt1 (P31749 whole entry): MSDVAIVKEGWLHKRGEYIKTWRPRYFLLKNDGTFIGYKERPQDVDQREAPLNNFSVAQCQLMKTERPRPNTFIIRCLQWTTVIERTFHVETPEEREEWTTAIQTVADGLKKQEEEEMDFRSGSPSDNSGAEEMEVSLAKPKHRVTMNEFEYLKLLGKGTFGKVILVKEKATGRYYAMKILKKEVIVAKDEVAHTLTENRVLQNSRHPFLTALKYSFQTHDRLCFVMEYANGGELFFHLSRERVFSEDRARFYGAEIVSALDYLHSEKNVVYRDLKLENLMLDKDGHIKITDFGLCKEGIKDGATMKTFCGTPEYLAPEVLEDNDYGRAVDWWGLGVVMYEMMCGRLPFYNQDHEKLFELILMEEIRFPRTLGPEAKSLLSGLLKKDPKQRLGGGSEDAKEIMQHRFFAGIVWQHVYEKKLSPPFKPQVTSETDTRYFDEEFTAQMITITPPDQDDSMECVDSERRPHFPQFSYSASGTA

In the case of `Fc1ccc(-c2cn3ccnc3nc2-c2ccc(CN3CCC(c4cnc5ccccc5n4)CC3)cc2)cc1` [Example 34.0, 2-(1-{4-[6-(4-fluorophenyl)-imidazo[1,2-a]pyrimidin-7-yl]-benzyl}-piperidine-4-yl)-quinoxaline], the IC50 is 365 nM in experiment [1] and 2290 nM in experiment [2].

Regarding `Cc1nc2nc(-c3ccc(CN4CC(c5n[nH]c(-c6ccccn6)n5)C4)cc3)c(-c3ccccc3)cn2c1Br` [Example 26.0, 3-bromo-2-methyl-6-phenyl-7-{4-[3-(5-pyridine-2-yl-1H-[1,2,4]triazole-3-yl]-azetidine-1-ylmethyl]-phenyl}-imidazo[1,2-a]pyrimidine], the IC50 in experiment [1] and in experiment [2] was 4 nM in each case.

Consider `COC(=O)c1cn2cc(-c3ccccc3)c(-c3ccc(CN4CC(c5n[nH]c(-c6ccccn6)n5)C4)cc3)nc2n1` [Example 74.1, 6-phenyl-7-{4-[3-[5-pyridine-2-yl-1H-[1,2,4]triazole-3-yl)azetidine-1-ylmethyl]-phenyl}-imidazo[1,2-a]pyrimidine-2-carboxylic acid methyl ester], for which the values for the IC50 in experiment [1] and in experiment [2] were 10 nM and 17 nM, respectively.

Regarding `Cc1nc2nc(-c3ccc(CN4CCC(c5n[nH]c(-c6cc(Cl)ccn6)n5)CC4)cc3)c(-c3ccc(F)cc3F)cn2n1` [Example 50.0, 5-(4-{4-[5-(4-chloropyridine-2-yl)-1H-[1,2,4]triazole-3-yl]-piperidine-1-ylmethyl}-phenyl) 6-(2,4-difluorophenyl)-2-methyl-[1,2,4]triazolo[1,5-a]pyrimidine], the results for the IC50 in experiment [1] and in experiment [2] were 22 nM and 97 nM, respectively.

As for `CNc1c(-c2ccccc2)c(-c2ccc(CN3CC(c4n[nH]c(-c5ccccn5)n4)C3)cc2)nc2nccn12` [Example 58.0, methyl-(6-phenyl-7-{4-{3-[5-(pyridine-2-yl)-1H-[1,2,4]triazole-3-yl)-azetidine-1-ylmethyl]-phenyl}-imidazo[1,2-a]pyrimidin-5-yl)-amine], the concentration for half-maximal inhibition (IC50) in experiment [1] turned out to be 30 nM; in experiment [2] it was 476 nM.

Consider `Fc1ccc(-c2cn3nc(C4CC4)nc3nc2-c2ccc(CN3CCC(c4n[nH]c(-c5cc(Cl)ccn5)n4)CC3)cc2)cc1` [Example 51.2, 5-(4-{4-[5-(4-chloropyridine-2-yl)-1H-[1,2,4]triazole-3-yl]-piperidine-1-ylmethyl}-phenyl)-2-cyclopropyl-6-(4-fluorophenyl)-[1,2,4]triazolo[1,5-a]pyrimidine], for which the IC50 in experiment [1] stood at 56 nM; in experiment [2], 165 nM.

In the case of `CC(C)Nc1c(-c2ccccc2)c(-c2ccc(CN3CC(c4n[nH]c(-c5ccccn5)n4)C3)cc2)nc2nccn12` [Example 66.0, isopropyl-(6-phenyl-7-{4-{3-[5-(pyridine-2-yl)-1H-[1,2,4]triazole-3-yl)-azetidine-1-ylmethyl]-phenyl}-imidazo[1,2-a]pyrimidin-5-yl)-amine], the IC50 in experiment [1] came to 25 nM; in experiment [2] it was 53 nM.

As to `COC(=O)c1cnn2cc(-c3c(F)cccc3F)c(-c3ccc(CN4CC(c5n[nH]c(-c6ccccn6)n5)C4)cc3)nc12` [Example 28.0, 6-(2,6-difluorophenyl)-5-(4-{3-[5-(pyridine-2-yl)-1H-[1,2,4]triazole-3-yl]-azetidine-1-ylmethyl}-phenyl)-pyrazolo[1,5-a]pyrimidine-3-carboxylic acid methyl ester], the IC50 was 14 nM in experiment [1] and 761 nM in experiment [2].

Regarding `CC(C)Nc1c(-c2ccccc2)c(-c2ccc(CN3CC(c4n[nH]c(-c5ccccn5)n4)C3)cc2)nc2nc(-c3ccccn3)nn12` [Example 68.0], the IC50 in experiment [1] is 24 nM; in experiment [2] it was 88 nM.

Turning to `c1ccc(-c2cn3nc(C4CC4)nc3nc2-c2ccc(CN3CC(c4n[nH]c(-c5ccccn5)n4)C3)cc2)cc1` [Example 70.0], the IC50 worked out at 7 nM in experiment [1] and 5 nM in experiment [2].

Consider `Cc1cccc(-c2nc(C3CCN(Cc4ccc(-c5nc6nccn6cc5-c5ccc(F)cc5)cc4)CC3)n[nH]2)n1` [Example 52.0, 6-(4-fluorophenyl)-7-(4-{4-[5-(6-methylpyridine-2-yl)-1H-[1,2,4]triazole-3-yl]-piperidine-1-ylmethyl}-phenyl)-imidazo[1,2-a]pyrimidine formiate], for which the IC50 turned out to be 9 nM in experiment [1] and 17 nM in experiment [2].

For `c1ccc(-c2cn3nc(C4CC4)nc3nc2-c2ccc(CN3CCC(c4cnc5ccccc5n4)CC3)cc2)cc1` [Example 40.0, 2-{1-[4-(2-cyclopropyl-6-phenyl-[1,2,4]triazolo[1,5-a]pyrimidin-5-yl)-benzyl]-piperidine-4-yl}-quinoxaline], the IC50 in experiment [1] was 247 nM; in experiment [2] it was 273 nM.

For the compound `Cc1cccc(-c2nc(C3CN(Cc4ccc(-c5nc6nc(C)c(Br)n6cc5-c5ccccc5)cc4)C3)n[nH]2)n1` [Example 57.0, 3-bromo-2-methyl-7-{4-{3-[5-(6-methylpyridine-2-yl)-1H-[1,2,4]triazole-3-yl)-azetidine-1-ylmethyl]-phenyl}-6-phenyl-imidazo[1,2-a]pyrimidine], the IC50 in experiment [1] amounted to 6 nM; in experiment [2], 3 nM.

For the compound `Nc1ncnc2c1cnn2C1CCN(Cc2ccc(-c3nc4ccnn4cc3-c3ccccc3)cc2)CC1` [Example 19.0, 1-{1-[4-(6-phenyl-pyrazolo[1,5-a]pyrimidin-5-yl)-benzyl]-piperidin-4-yl}-1H-pyrazolo[3,4-d]pyrimidin-4-ylamine], the IC50 in experiment [1] was determined as 25 nM; in experiment [2] it was 332 nM.

On to `CCc1cnn2cc(-c3ccccc3)c(-c3ccc(CN4CC(c5n[nH]c(-c6cccc(C)n6)n5)C4)cc3)nc12` [Example 42.0, 3-ethyl-5-(4-{3-[5-(6-methyl-pyridin-2-yl)-1H-[1,2,4]triazol-3-yl]-azetidin-1-ylmethyl}-phenyl)-6-phenyl-pyrazolo[1,5-a]pyrimidine], for which the IC50 stood at 5 nM in experiment [1] and 19 nM in experiment [2].

As for `CC(C)Nc1nc2nc(-c3ccc(CN4CC(c5n[nH]c(-c6ccccn6)n5)C4)cc3)c(-c3ccccc3)cn2n1` [Example 43.1, isopropyl-(6-phenyl-5-{4-[3-(5-pyridin-2-yl-1H-[1,2,4]triazol-3-yl)-azetidin-1-ylmethyl]-phenyl}-[1,2,4]triazolo[1,5-a]pyrimidin-2-yl)-amine], the IC50 in experiment [1] was found to be 22 nM; in experiment [2], 11 nM.
